Reference: patent publication US6914045B2, “Glycopeptide antibiotics” (Wyeth Holdings Corporation, priority 2001, dated 2005)
≈ marks a conversion by molar mass, not a printed value.

Columns and labels:
Assay in all cases: in vitro antibacterial evaluation, MIC by broth dilution
Type in all cases: cell-based
Enterococcus sp. = conditions: broth dilution, 18 hours at 35° C.
Method in brief: (§1)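 MIC = lowest antibiotic concentration preventing visible growth; inoculum 5×10^5 CFU/mL; drug range 64-0.06 μg/mL; Muller-Hinton II […]; NCCLS M7-A2 guidance.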

Staphylococcus sp. = conditions: broth dilution, 18 hours at 35° C.
Method in brief: as §1

Escherichia coli = conditions: 18 hours at 35° C.
Method in brief: as §1

Streptococcus sp. = conditions: broth dilution, 18 hours at 35° C.
Method in brief: as §1

COC1CCC2(C)C(CCC3C2CCC2(C)C(C(C)CCC4OCC5OC(OC6C(CO)OC(Oc7ccc(CC8NC(=O)C(C(C)c9ccccc9)NC(=O)CNC(=O)C(CO)NC(=O)C(C(O)C9CNC(=N)N9C9OC(CO)C(O)C(O)C9O)NC(=O)C(C(O)C9CNC(=N)N9)NC8=O)cc7)C(O)C6O)C(O)C(O)C5O4)CCC32)C1 (stereo not shown) [Example 130]
MIC Enterococcus avium (GC 4558) (Enterococcus sp.; Enterococcus avium (GC 4558)): 16 µg/mL (≈ 9.69 µM)
MIC Enterococcus faecalis (ATCC 29212) (Enterococcus sp.; Enterococcus faecalis (ATCC 29212)): 32 µg/mL (≈ 19.4 µM)
MIC Enterococcus faecalis (GC 2242) (Enterococcus sp.; Enterococcus faecalis (GC 2242)): 32 µg/mL (≈ 19.4 µM)
MIC Enterococcus faecalis (GC 2691) (Enterococcus sp.; Enterococcus faecalis (GC 2691)): 32 µg/mL (≈ 19.4 µM)
MIC Enterococcus faecalis (GC 3059) (Enterococcus sp.; Enterococcus faecalis (GC 3059)): 64 µg/mL (≈ 38.7 µM)
MIC Enterococcus faecalis (GC 4552) (Enterococcus sp.; Enterococcus faecalis (GC 4552)): 32 µg/mL (≈ 19.4 µM)
MIC Enterococcus faecalis (GC 4553) (Enterococcus sp.; Enterococcus faecalis (GC 4553)): 8 µg/mL (≈ 4.84 µM)
MIC Enterococcus faecalis (GC 4554) (Enterococcus sp.; Enterococcus faecalis (GC 4554)): 32 µg/mL (≈ 19.4 µM)
MIC Enterococcus faecalis (GC 6189) (Enterococcus sp.; Enterococcus faecalis (GC 6189)): 32 µg/mL (≈ 19.4 µM)
MIC Enterococcus faecium (GC 2243) (Enterococcus sp.; Enterococcus faecium (GC 2243)): 8 µg/mL (≈ 4.84 µM)
MIC Enterococcus faecium (GC 4556) (Enterococcus sp.; Enterococcus faecium (GC 4556)): 64 µg/mL (≈ 38.7 µM)
MIC Enterococcus faecium (GC 4557) (Enterococcus sp.; Enterococcus faecium (GC 4557)): 32 µg/mL (≈ 19.4 µM)
MIC Enterococcus faecalis (ATCC 29212) (Enterococcus sp.; strain ATCC 29212): 32 µg/mL (≈ 19.4 µM)
MIC Enterococcus faecalis (GC 2242) (Enterococcus sp.; strain GC 2242): 32 µg/mL (≈ 19.4 µM)
MIC Enterococcus faecium (GC 2243) (Enterococcus sp.; strain GC 2243): 8 µg/mL (≈ 4.84 µM)
MIC Enterococcus faecalis (GC 2691) (Enterococcus sp.; strain GC 2691): 32 µg/mL (≈ 19.4 µM)
MIC Enterococcus faecalis (GC 3059) (Enterococcus sp.; strain GC 3059): 64 µg/mL (≈ 38.7 µM)
MIC Enterococcus faecalis (GC 4552) (Enterococcus sp.; strain GC 4552): 32 µg/mL (≈ 19.4 µM)
MIC Enterococcus faecalis (GC 4553) (Enterococcus sp.; strain GC 4553): 8 µg/mL (≈ 4.84 µM)
MIC Enterococcus faecalis (GC 4554) (Enterococcus sp.; strain GC 4554): 32 µg/mL (≈ 19.4 µM)
MIC Enterococcus faecium (GC 4556) (Enterococcus sp.; strain GC 4556): 64 µg/mL (≈ 38.7 µM)
MIC Enterococcus faecium (GC 4557) (Enterococcus sp.; strain GC 4557): 32 µg/mL (≈ 19.4 µM)
MIC Enterococcus avium (GC 4558) (Enterococcus sp.; strain GC 4558): 16 µg/mL (≈ 9.69 µM)
MIC Enterococcus faecalis (GC 6189) (Enterococcus sp.; strain GC 6189): 32 µg/mL (≈ 19.4 µM)
MIC Staphylococcus aureus (ATCC 29213) (Staphylococcus sp.): 32 µg/mL (≈ 19.4 µM)
MIC Staphylococcus aureus (GC 1131) (Staphylococcus sp.): 32 µg/mL (≈ 19.4 µM)
MIC Staphylococcus aureus (GC 3051) (Staphylococcus sp.): 32 µg/mL (≈ 19.4 µM)
MIC Staphylococcus aureus (GC 3053) (Staphylococcus sp.): 32 µg/mL (≈ 19.4 µM)
MIC Staphylococcus aureus (GC 4541) (Staphylococcus sp.): 32 µg/mL (≈ 19.4 µM)
MIC Staphylococcus aureus (GC 4542) (Staphylococcus sp.): 32 µg/mL (≈ 19.4 µM)
MIC Staphylococcus aureus (GC 4544) (Staphylococcus sp.): 32 µg/mL (≈ 19.4 µM)
MIC Staphylococcus aureus (GC 4545) (Staphylococcus sp.): 32 µg/mL (≈ 19.4 µM)
MIC Staphylococcus aureus (GC 1131) (Staphylococcus sp.; inoculum 5×10^5 CFU/mL, strain GC 1131): 32 µg/mL (≈ 19.4 µM)
MIC Staphylococcus aureus (ATCC 29213) (Staphylococcus sp.; strain ATCC 29213): 32 µg/mL (≈ 19.4 µM)
MIC Staphylococcus aureus (GC 3051) (Staphylococcus sp.; strain GC 3051): 32 µg/mL (≈ 19.4 µM)
MIC Staphylococcus aureus (GC 3053) (Staphylococcus sp.; strain GC 3053): 32 µg/mL (≈ 19.4 µM)
MIC Staphylococcus aureus (GC 4541) (Staphylococcus sp.; strain GC 4541): 32 µg/mL (≈ 19.4 µM)
MIC Staphylococcus aureus (GC 4542) (Staphylococcus sp.; strain GC 4542): 32 µg/mL (≈ 19.4 µM)
MIC Staphylococcus aureus-SMITH (GC 4543) (Staphylococcus sp.; strain GC 4543): 32 µg/mL (≈ 19.4 µM)
MIC Staphylococcus aureus (GC 4544) (Staphylococcus sp.; strain GC 4544): 32 µg/mL (≈ 19.4 µM)
MIC Staphylococcus aureus (GC 4545) (Staphylococcus sp.; strain GC 4545): 32 µg/mL (≈ 19.4 µM)
MIC Staphylococcus haemolyticus (GC 4546) (Staphylococcus sp.; strain GC 4546): 32 µg/mL (≈ 19.4 µM)
MIC Coagulase Negative Staphylococcus (GC 4547) (Staphylococcus sp.; strain GC 4547): 32 µg/mL (≈ 19.4 µM)
MIC Coagulase Negative Staphylococcus (GC 4548) (Staphylococcus sp.; strain GC 4548): 32 µg/mL (≈ 19.4 µM)
MIC Coagulase Negative Staphylococcus (GC 4549) (Staphylococcus sp.; strain GC 4549): 16 µg/mL (≈ 9.69 µM)
MIC Coagulase Negative Staphylococcus (GC 4551) (Staphylococcus sp.; strain GC 4551): 32 µg/mL (≈ 19.4 µM)
MIC Coagulase Negative Staphylococcus (GC 6257) (Staphylococcus sp.; strain GC 6257): 32 µg/mL (≈ 19.4 µM)
MIC Staphylococcus aureus-SMITH (GC 4543) (Staphylococcus sp.; strain SMITH GC 4543): 32 µg/mL (≈ 19.4 µM)
MIC Escherichia coli (ATCC 25922) (Escherichia coli; strain ATCC 25922): >64 µg/mL
MIC Escherichia coli (GC 4559) (Escherichia coli; strain GC 4559): >64 µg/mL
MIC Escherichia coli (GC 4560) (Escherichia coli; strain GC 4560): 64 µg/mL (≈ 38.7 µM)
MIC Streptococcus agalactiae (GC 4564) (Streptococcus sp.; Streptococcus agalactiae (GC 4564)): 8 µg/mL (≈ 4.84 µM)
MIC Streptococcus pneumoniae (ATCC 6301) (Streptococcus sp.; Streptococcus pneumoniae (ATCC 6301)): 8 µg/mL (≈ 4.84 µM)
MIC Streptococcus pneumoniae (GC 1894) (Streptococcus sp.; Streptococcus pneumoniae (GC 1894)): 1 µg/mL (≈ 0.605 µM)
MIC Streptococcus pneumoniae (GC 4565) (Streptococcus sp.; Streptococcus pneumoniae (GC 4565)): 4 µg/mL (≈ 2.42 µM)
MIC Streptococcus pyogenes (GC 4563) (Streptococcus sp.; Streptococcus pyogenes (GC 4563)): 16 µg/mL (≈ 9.69 µM)
MIC Streptococcus pneumoniae (ATCC 6301) (Streptococcus sp.; strain ATCC 6301): 8 µg/mL (≈ 4.84 µM)
MIC Streptococcus pneumoniae (GC 1894) (Streptococcus sp.; strain GC 1894): 1 µg/mL (≈ 0.605 µM)
MIC Streptococcus pyogenes (GC 4563) (Streptococcus sp.; strain GC 4563): 16 µg/mL (≈ 9.69 µM)
MIC Streptococcus agalactiae (GC 4564) (Streptococcus sp.; strain GC 4564): 8 µg/mL (≈ 4.84 µM)
MIC Streptococcus pneumoniae (GC 4565) (Streptococcus sp.; strain GC 4565): 4 µg/mL (≈ 2.42 µM)
